In ChEMBL document CHEMBL3044659, “Docking, synthesis, and pharmacological evaluation of isoindoline derivatives as anticonvulsant agents” (Med Chem Res, 2013):
The source made the active and inactive calls.

Columns and labels:
Mus musculus [1] = test: Anticonvulsant activity in pentylenetetrazole-induced seizure Swiss Mus musculus (mouse) model assessed as increase in clonic seizure threshold at 40 mg/kg, ip measured after 30 min (reference value: 38.9 +/-1.01 mg/kg); type: functional; conditions: route intraperitoneal
Mus musculus [2] = test: Anticonvulsant activity in pentylenetetrazole-induced seizure Swiss Mus musculus (mouse) model assessed as increase in tonic seizure threshold at 40 mg/kg, ip measured after 30 min (reference value: 59.58 +/-1.01 mg/kg); type: functional; conditions: route intraperitoneal
[3] = target: Sodium channel protein type 2 subunit alpha (Homo sapiens, UniProt Q99250); test: Binding affinity to Nav 1.2 (unknown origin)
Mus musculus [4] = test: Anticonvulsant activity in pentylenetetrazole-induced seizure Swiss Mus musculus (mouse) model assessed as increase in clonic seizure threshold at 10 to 20 mg/kg, ip measured after 30 min; type: functional, organism-based

Sodium channel protein type 2 subunit alpha, sequence (Q99250 whole entry): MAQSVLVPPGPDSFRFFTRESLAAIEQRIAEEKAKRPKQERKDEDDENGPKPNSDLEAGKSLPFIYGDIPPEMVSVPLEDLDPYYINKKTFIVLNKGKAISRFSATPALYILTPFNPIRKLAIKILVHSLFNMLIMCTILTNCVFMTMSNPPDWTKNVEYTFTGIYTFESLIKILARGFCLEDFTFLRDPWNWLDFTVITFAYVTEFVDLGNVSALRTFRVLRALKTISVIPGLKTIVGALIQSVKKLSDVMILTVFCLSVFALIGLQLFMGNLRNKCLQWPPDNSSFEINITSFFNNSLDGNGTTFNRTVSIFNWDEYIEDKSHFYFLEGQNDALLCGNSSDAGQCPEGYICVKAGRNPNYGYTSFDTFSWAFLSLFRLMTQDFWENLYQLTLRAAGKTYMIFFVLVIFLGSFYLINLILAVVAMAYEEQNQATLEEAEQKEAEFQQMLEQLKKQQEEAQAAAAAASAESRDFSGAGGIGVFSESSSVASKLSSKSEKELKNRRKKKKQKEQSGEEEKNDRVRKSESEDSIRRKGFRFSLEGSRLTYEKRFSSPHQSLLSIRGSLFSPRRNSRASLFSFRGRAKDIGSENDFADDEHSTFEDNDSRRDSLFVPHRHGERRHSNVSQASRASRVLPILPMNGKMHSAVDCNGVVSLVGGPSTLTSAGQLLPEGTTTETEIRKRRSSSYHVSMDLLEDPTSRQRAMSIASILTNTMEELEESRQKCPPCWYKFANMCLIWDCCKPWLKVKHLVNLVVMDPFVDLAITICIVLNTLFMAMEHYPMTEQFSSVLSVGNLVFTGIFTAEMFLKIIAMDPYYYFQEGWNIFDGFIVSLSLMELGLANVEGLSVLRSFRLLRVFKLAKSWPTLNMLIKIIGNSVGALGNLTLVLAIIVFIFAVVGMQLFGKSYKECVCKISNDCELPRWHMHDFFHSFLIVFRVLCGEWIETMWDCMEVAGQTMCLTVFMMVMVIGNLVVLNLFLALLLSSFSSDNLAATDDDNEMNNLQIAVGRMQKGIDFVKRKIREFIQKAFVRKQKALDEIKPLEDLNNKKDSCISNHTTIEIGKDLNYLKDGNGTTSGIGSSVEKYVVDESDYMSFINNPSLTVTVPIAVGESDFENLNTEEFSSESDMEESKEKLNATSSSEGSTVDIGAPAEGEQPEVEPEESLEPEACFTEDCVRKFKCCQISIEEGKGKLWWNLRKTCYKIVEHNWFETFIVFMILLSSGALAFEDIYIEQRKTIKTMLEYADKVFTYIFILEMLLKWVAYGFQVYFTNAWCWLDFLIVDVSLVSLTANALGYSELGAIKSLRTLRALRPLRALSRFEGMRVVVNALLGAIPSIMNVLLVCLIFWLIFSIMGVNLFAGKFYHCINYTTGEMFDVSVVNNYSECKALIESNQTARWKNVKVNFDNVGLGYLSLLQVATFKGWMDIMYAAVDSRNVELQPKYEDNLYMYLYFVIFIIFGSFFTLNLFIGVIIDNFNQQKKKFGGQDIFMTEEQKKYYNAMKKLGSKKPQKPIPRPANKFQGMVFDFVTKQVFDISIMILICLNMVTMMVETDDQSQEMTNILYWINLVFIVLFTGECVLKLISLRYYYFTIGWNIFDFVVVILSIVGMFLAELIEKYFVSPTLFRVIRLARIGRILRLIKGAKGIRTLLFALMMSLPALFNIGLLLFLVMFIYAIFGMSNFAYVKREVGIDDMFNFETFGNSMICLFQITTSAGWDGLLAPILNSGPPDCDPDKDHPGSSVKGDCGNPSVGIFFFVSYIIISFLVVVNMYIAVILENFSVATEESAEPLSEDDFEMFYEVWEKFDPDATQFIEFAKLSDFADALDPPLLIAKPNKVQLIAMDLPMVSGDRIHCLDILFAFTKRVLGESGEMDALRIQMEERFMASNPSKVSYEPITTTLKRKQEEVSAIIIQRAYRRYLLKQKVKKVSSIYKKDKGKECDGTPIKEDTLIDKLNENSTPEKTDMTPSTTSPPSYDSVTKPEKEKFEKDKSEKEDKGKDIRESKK

SMILES	Clonic seizure threshold (PTZ dose) (Mus musculus [1]) [mg/kg]	Tonic seizure threshold (PTZ dose) (Mus musculus [2]) [mg/kg]	Ki [3] [µM]	Activity (Mus musculus [4])
O=C1c2ccccc2C(=O)N1c1ccc([N+](=O)[O-])cc1	41.12	61.6	65.6	
COc1ccc(N2C(=O)c3ccccc3C2=O)c([N+](=O)[O-])c1	49.4	61.92	108	
O=C(O)c1ccc(N2C(=O)c3ccccc3C2=O)cc1	46.65	79.94	50.4	
NS(=O)(=O)c1ccc(N2C(=O)c3ccccc3C2=O)cc1	33.4	60.56	16	
O=C(O)c1ccccc1N1C(=O)c2ccccc2C1=O [N-PHTHALOYLANTHRANILIC ACID]	42.95	58.08	338	
O=C1c2ccccc2C(=O)N1c1ccccc1[N+](=O)[O-]	46.34	65.66	134	
COc1ccc(N2C(=O)c3ccccc3C2=O)c(N)c1	56.34	98.12	20.3	
CC(=O)Nc1ccc(N2C(=O)c3ccccc3C2=O)cc1	40.37	86.37	18.3	
O=C(O)c1ccc(N2C(=O)c3ccccc3C2=O)cc1O	52.1	64.97	78.4	
O=C1NC(=O)C(c2ccccc2)(c2ccccc2)N1 [PHENYTOIN]	49.2	115		inactive
O=C1c2ccccc2C(=O)N1c1cccc([N+](=O)[O-])c1	64.89	96.84	21.8	
NS(=O)(=O)c1nnc(N2C(=O)c3ccccc3C2=O)s1	45.14	62.35	61.1	
